According to US20080300243A1, “Amide Derivatives as Ion-Channel Ligands and Pharmaceutical Compositions and Methods of Using the Same” (priority 2005, published 2008):

Key:
[1] = Half-life in human liver microsomes (HLM); assay type: in vitro ADME; conditions: 1 μM compound, 0.78 mg/mL HLM, 37° C., NADPH; for half-life at 1 μM: human, human liver microsomes (HLM, HL101), pH 7.4
Method: Test compounds (1 μM) were incubated with 3.3 mM MgCl2 and 0.78 mg/mL HLM (HL101) in 100 mM potassium phosphate buffer (pH 7.4) at 37° C. on the 96-deep well plate. The reaction mixture was split into two groups, a non-P450 and a P450 group. NADPH was only added to the reaction mixture of the P450 group. An aliquot of samples of P450 group was collected at 0, 10, 30, and 60 min time point, where 0 min time point indicated the time when NADPH was added into the reaction mixture of P450 group. An aliquot of samples of non-P450 group was collected at −10 and 65 min time point. Collected aliquots were extracted with acetonitrile solution containing an internal standard. The precipitated protein was spun down in centrifuge (2000 rpm, 15 min). The compound concentration in supernatant was measured by LC/MS/MS system.
The half-life value was obtained by plotting the natural logarithm of the peak area ratio of compounds/internal standard versus time. The slope of the line of best fit through the points yields the rate of metabolism (k). This was converted to a half-life value using following equations:
Exemplary compounds of the invention were tested (1 μM), and were incubated with 3.3 mM MgCl2 and 0.78 mg/mL HLM (HL101) in 100 mM potassium phosphate buffer (pH 7.4) at 37° C. on the 96-deep well plate. The reaction mixture was split into two groups, a non-P450 and a P450 group. NADPH was only added to the reaction mixture of the P450 group. An aliquot of samples of the P450 group was collected at 0, 10, 30, and 60 minute time points, where the 0 minute time point indicated the time when NADPH was added into the reaction mixture of the P450 group. An aliquot of samples of the non-P450 group was collected at −10 and 65 minute time points. Collected aliquots were extracted with an acetonitrile solution containing an internal standard. The precipitated protein was spun down in a centrifuge (2000 rpm, 15 rain). The compound concentration in supernatant was measured by LC/MS/MS system. The half-life value (T1/2) was obtained by plotting the natural logarithm of the peak area ratio of compounds/internal standard versus time. The slope of the line of best fit through the points yields the rate of metabolism (k). This was converted to a half-life value using following equations: Half-life=ln 2/k.

VR1 = VR1 (Homo sapiens, UniProt Q8NER1); assay: Calcium uptake assay, low pH (proton) stimulus; assay type: cell-based; parameters: expressed in transfected cells; host or cells: T-REx HEK 293 (Invitrogen), pcDNA5/TO vector; conditions: low pH agonist, HEK 293 cells expressing hVR1; for inhibition at 0.3 µM: read-out: Low pH % Inhib. @ 0.3 μM
Chain of VR1 (Q8NER1 whole entry): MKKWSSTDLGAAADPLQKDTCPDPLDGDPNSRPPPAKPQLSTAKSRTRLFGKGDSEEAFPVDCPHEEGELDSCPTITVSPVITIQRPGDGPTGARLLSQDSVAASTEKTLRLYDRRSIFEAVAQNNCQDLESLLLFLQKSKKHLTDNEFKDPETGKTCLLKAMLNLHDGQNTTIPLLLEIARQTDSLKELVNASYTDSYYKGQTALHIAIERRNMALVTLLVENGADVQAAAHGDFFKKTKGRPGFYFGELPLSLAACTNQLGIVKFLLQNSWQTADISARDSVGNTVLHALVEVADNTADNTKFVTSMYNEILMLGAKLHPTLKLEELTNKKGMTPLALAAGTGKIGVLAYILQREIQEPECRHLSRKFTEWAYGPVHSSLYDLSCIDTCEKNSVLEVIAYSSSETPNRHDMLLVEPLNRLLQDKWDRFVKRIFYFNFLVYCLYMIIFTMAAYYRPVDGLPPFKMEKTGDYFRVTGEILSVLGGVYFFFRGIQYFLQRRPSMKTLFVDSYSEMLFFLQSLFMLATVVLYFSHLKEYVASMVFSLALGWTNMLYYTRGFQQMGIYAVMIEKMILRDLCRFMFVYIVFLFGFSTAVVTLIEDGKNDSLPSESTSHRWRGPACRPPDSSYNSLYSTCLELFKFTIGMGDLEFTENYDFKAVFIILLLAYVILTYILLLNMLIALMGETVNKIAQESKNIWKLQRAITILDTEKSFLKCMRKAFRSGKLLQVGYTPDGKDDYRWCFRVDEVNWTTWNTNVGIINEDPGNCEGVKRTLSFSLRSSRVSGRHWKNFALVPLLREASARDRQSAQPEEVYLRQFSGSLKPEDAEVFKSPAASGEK

| SMILES | half-life at 1 μM [1] | inhibition at 0.3 µM (VR1; HEK293, 0.3 μM compound) | further results |
| --- | --- | --- | --- |
| O=C(Nc1ccc2c(c1)OCCN2)c1ccc(/C=C/C(F)(F)F)cc1 [Compound 63] |  |  | Half Life [1]: 0.4 h |
| Cc1cc(C#CC2CCCC2)ccc1C(=O)Nc1ccc2c(c1)OCC(CO)N2 (centres unmarked) [Compound 125] | 0.67 h | 112% |  |
| O=C(Nc1ccc2c(c1)OCC(CO)N2)c1ccc(/C=C/C(F)(F)F)cc1F (centres unmarked) [Compound 144] | 1.18 h | 105% |  |
| O=C(Nc1ccc2c(c1)OC[C@@H](CO)O2)c1ccc(C#CC2CC2)cc1 [Compound 104] | 0.28 h | 91% |  |
| O=C(Nc1cnc2ccccc2c1)c1ccc(C#CC(F)(F)F)cc1 [Compound 46] | 0.02 h |  |  |
| CC(C)(C)C#Cc1ccc(C(=O)Nc2cccc3cnccc23)cc1 [Compound 31] | 0.4 h | 108% |  |
| Cc1nc2cc(NC(=O)c3ccc(C#CC(C)(C)C)cc3C)ccc2s1 [Compound 162] | 1.43 h | 89% |  |
| Cc1cc(C#CC(C)(C)C)ccc1C(=O)Nc1cccc2cnccc12 [Compound 163] | 1.16 h | 98% |  |
| O=C(Nc1ccc2c(c1)OCCN2)c1ccc(/C=C/C(F)(F)F)cc1F [Compound 134] | 1.56 h | 108% |  |
| CN1CCCc2ccc(NC(=O)c3ccc(/C=C/C(F)(F)F)cc3)cc21 [Compound 79] | 1.33 h | 98% |  |
| CC(C)(C)C#Cc1ccc(C(=O)Nc2ccc3c(c2)OCCN3)c(Cl)c1 [Compound 146] |  | 93% |  |
| Cc1nc2cc(NC(=O)c3ccc(C#CC(C)(C)C)cc3)ccc2s1 [Compound 56] |  | 104% |  |
| CC(C)(C)C#Cc1ccc(C(=O)Nc2ccc3c(c2)OCCO3)c(F)c1 [Compound 155] |  | 95% |  |
| CN1CCCc2ccc(NC(=O)c3ccc(C#CC4CCCC4)cc3)cc21 [Compound 98] |  | 78% |  |
| O=C(Nc1cnc2ccccc2c1)c1ccc(C#CC2CC2)cc1 [Compound 47] |  | 55% |  |
| Cc1cc(/C=C/C(F)(F)F)ccc1C(=O)Nc1cccc2c(Cl)nccc12 [Compound 200] |  | 55% |  |

| SMILES | half-life at 1 μM [1] | inhibition at 0.3 µM (VR1; HEK293, 0.3 μM compound) | further results |
| --- | --- | --- | --- |
| CC(C)/C=C/c1ccc(C(=O)Nc2ccc3c(c2)Cc2ccccc2-3)cc1 [Compound 13] |  | 11% |  |
| O=C(Nc1ccc2c(c1)OCCO2)c1ccc(C#CC2CC2)cc1F [Compound 145] |  | 41% |  |
| O=C(Nc1ccc2c(c1)OCC(CO)O2)c1ccc(C#CC2CC2)cc1 (centres unmarked) [Compound 87] |  | 98% |  |
| Cc1nc2cc(NC(=O)c3ccc(/C=C/C(F)(F)F)cc3)ccc2s1 [Compound 53] |  | 81% |  |
| CC(C)(C)C#Cc1ccc(C(=O)Nc2cnc3ccccc3c2)cc1 [Compound 32] |  |  | Low pH % Inhib. @ 0.3 μM (VR1; 0.3 μM compound): 101% |
| O=C(Nc1ccc2sc(CO)nc2c1)c1ccc(C#CC(F)(F)F)cc1 [Compound 54] |  | 76% |  |
| CC(C)(C)C#Cc1ccc(C(=O)Nc2cccc3cnccc23)cn1 [Compound 23] |  | 98% |  |
| Cc1cc(/C=C/C(F)(F)F)ccc1C(=O)Nc1cnc2[nH]ccc2c1 [Compound 230] |  | 99% |  |
| CN1C(=O)COc2ccc(NC(=O)c3ccc(/C=C/C(F)(F)F)cc3)cc21 [Compound 84] |  | 45% |  |
| COc1cc(NC(=O)c2ccc(/C=C/C(C)C)cc2)cc(C(F)(F)F)c1 [Compound 240] |  |  | inhibition at 1 µM (VR1; HEK293, 1 μM compound, read-out: Low pH % Inhib. (at 1 μM)): 75% |
| CC(C)(C)C#Cc1ccc(C(=O)Nc2cccc3cnccc23)cc1OCCN1CCOCC1 [Compound 60] |  |  | Half Life [1]: 0.35 h |
| O=C(Nc1ccc2c(c1)OCCO2)c1ccc(C#CC(F)(F)F)cc1 [Compound 43] |  | 105% |  |
| CC(C)/C=C/c1ccc(C(=O)Nc2ccc3ncccc3c2)cc1 [Compound 11] |  | 34% |  |
| CC1(C)Oc2cc(NC(=O)c3ccc(/C=C/C(F)(F)F)cc3)ccc2NC1=O [Compound 71] |  | 10% |  |
| Cc1cc2c(NC(=O)c3ccc(/C=C/C(F)(F)F)cc3)cccc2cn1 [Compound 114] |  | 90% |  |

Further lines, with some results ahead:

| half-life at 1 μM [1] | inhibition at 0.3 µM (VR1; HEK293, 0.3 μM compound) | SMILES | further results |
| --- | --- | --- | --- |
| 1.72 h | 104% | O=C(Nc1ccc2c(c1)OCC(CO)N2)c1c(F)cc(C#CC2CC2)cc1F (centres unmarked) [Compound 129] |  |
| 0.42 h | 109% | CCOc1cc(C(=O)Nc2cccc3cnccc23)ccc1C#CC(C)(C)C [Compound 65] |  |
| 0.31 h | 92% | O=C(Nc1ccc2c(c1)OC[C@H](CO)O2)c1ccc(C#CC2CC2)cc1 [Compound 103] |  |
| 1.25 h | 19% | COc1cc(/C=C/C(F)(F)F)ccc1C(=O)Nc1ccc2c(c1)OCCN2 [Compound 122] |  |
| 0.58 h | 96% | O=C(Nc1cccc2cnccc12)c1ccc(/C=C/C(F)(F)F)cc1F [Compound 160] |  |
| 1.71 h | 54% | O=C(Nc1cnc2ccccc2c1)c1ccc(/C=C/C(F)(F)F)cc1 [Compound 36] |  |
| 1.86 h | 96% | O=C(Nc1ccc2c(c1)OCC(CO)N2)c1ccc(C#CC2CCCC2)cc1F (centres unmarked) [Compound 126] |  |
| 1.01 h | 112% | Cc1cc(C#CC2CC2)ccc1C(=O)Nc1ccc2c(c1)OCC(CO)N2 (centres unmarked) [Compound 124] |  |
| 1.18 h | 106% | CC(C)(C)C#Cc1ccc(C(=O)Nc2ccc3c(c2)OCCO3)cn1 [Compound 22] |  |
| 0.3 h | 102% | CC(C)(C)C#Cc1ncc(C(=O)Nc2ccc3c(c2)OCCN3)cn1 [Compound 95] |  |
|  | 101% | O=C(Nc1ccc2c(c1)OCC(CO)O2)c1ccc(/C=C/C(F)(F)F)cc1 (centres unmarked) [Compound 97] |  |
|  | 94% | CN1CCOc2cc(NC(=O)c3ccc(/C=C/C(F)(F)F)cc3)ccc21 [Compound 73] |  |
|  | 92% | Cc1cc(/C=C/C(F)(F)F)ccc1C(=O)Nc1ccc2c(c1)OCC(CO)O2 (centres unmarked) [Compound 185] |  |
|  | 98% | O=C(Nc1ccc2c(c1)OCCN2)c1ccc(C#CC2CCCC2)cc1 [Compound 117] |  |
|  | 86% | Cc1nc2cc(NC(=O)c3ccc(C#CC(C)(C)C)cc3C)ccc2[nH]1 [Compound 215] |  |
|  | 104% | Cc1cc(C#CC2CC2)ccc1C(=O)Nc1ccc2c(c1)OCCN2 [Compound 153] |  |

| half-life at 1 μM [1] | inhibition at 0.3 µM (VR1; HEK293, 0.3 μM compound) | SMILES | further results |
| --- | --- | --- | --- |
|  | 108% | Cc1cc(C#CC2CC2)ccc1C(=O)Nc1ccc2c(c1)OCC(CO)O2 (centres unmarked) [Compound 151] |  |
|  | 124% | CC1(C)CNc2ccc(NC(=O)c3ccc(/C=C/C(F)(F)F)cc3)cc2O1 [Compound 72] |  |
|  | 105% | Cn1ccc2cc(NC(=O)c3ccc(C#CC(C)(C)C)cc3)ccc21 [Compound 33] |  |
|  | 14% | CCn1c2ccccc2c2cc(NC(=O)c3ccc(/C(C)=C\C(C)(C)C)cc3)ccc21 [Compound 19] |  |
|  | 100% | CC(C)(C)C#Cc1cc(F)c(C(=O)Nc2cnc3ccccc3c2)c(F)c1 [Compound 179] |  |
|  | 102% | O=C(Nc1ccc2c(c1)OCC(CO)O2)c1ccc(C#CC2CC2)cc1Cl (centres unmarked) [Compound 156] |  |
|  | 42% | O=C(Nc1ccc2c(c1)OCCO2)c1ccc(C#CC2CCCC2)cc1 [Compound 100] |  |
|  | 59% | Cc1cc(C#CC(C)(C)C)ccc1C(=O)Nc1ccc2[nH]c(=O)oc2c1 [Compound 217] |  |
|  | 95% | CC(C)(C)C#Cc1ccc(C(=O)Nc2cccc3cnccc23)c(F)c1 [Compound 175] |  |
|  | 104% | CC(C)(C)C#Cc1ccc(C(=O)Nc2ccc3c(c2)OCO3)cn1 [Compound 26] |  |
|  | 9% | CC1=Cc2c(cccc2NC(=O)c2ccc(/C=C/C(F)(F)F)cc2)NN1 [Compound 113] |  |
|  | 105% | Cn1ccc2cc(NC(=O)c3ccc(C#CC(C)(C)C)nc3)ccc21 [Compound 25] |  |
|  | 104% | CC(C)(C)C#Cc1cc(F)c(C(=O)Nc2ccc3c(c2)OCC(CO)N3)c(F)c1 (centres unmarked) [Compound 168] |  |
|  | 102% | CC(C)(C)C#Cc1ccc(C(=O)Nc2ccc3c(c2)OCO3)cc1 [Compound 28] |  |
|  | 75% | O=C(Nc1ccc2c(c1)OCC(CO)O2)c1ccc(C#CC2CC2)cc1F (centres unmarked) [Compound 150] |  |
